Calls of active or inactive are those of the source. The rule behind the calls is not given here.
Assays:
[1] = Metabolic stability in mouse liver microsomes at 1 umol/L after 20 mins by HPLC analysis; format: ADME, Microsome; conditions: read-out: Stability
[2] = molecular target: T1, Receptor tyrosine-protein kinase erbB-2 (Homo sapiens, UniProt P04626); assay: Inhibition of N-terminus peptide-tagged human recombinant HER2 expressed using baculovirus infection system using [gamma-33P]-ATP preincubated with compound for 5 mins measured after 10 mins by scintillation counting
T1 sequence (P04626 whole entry): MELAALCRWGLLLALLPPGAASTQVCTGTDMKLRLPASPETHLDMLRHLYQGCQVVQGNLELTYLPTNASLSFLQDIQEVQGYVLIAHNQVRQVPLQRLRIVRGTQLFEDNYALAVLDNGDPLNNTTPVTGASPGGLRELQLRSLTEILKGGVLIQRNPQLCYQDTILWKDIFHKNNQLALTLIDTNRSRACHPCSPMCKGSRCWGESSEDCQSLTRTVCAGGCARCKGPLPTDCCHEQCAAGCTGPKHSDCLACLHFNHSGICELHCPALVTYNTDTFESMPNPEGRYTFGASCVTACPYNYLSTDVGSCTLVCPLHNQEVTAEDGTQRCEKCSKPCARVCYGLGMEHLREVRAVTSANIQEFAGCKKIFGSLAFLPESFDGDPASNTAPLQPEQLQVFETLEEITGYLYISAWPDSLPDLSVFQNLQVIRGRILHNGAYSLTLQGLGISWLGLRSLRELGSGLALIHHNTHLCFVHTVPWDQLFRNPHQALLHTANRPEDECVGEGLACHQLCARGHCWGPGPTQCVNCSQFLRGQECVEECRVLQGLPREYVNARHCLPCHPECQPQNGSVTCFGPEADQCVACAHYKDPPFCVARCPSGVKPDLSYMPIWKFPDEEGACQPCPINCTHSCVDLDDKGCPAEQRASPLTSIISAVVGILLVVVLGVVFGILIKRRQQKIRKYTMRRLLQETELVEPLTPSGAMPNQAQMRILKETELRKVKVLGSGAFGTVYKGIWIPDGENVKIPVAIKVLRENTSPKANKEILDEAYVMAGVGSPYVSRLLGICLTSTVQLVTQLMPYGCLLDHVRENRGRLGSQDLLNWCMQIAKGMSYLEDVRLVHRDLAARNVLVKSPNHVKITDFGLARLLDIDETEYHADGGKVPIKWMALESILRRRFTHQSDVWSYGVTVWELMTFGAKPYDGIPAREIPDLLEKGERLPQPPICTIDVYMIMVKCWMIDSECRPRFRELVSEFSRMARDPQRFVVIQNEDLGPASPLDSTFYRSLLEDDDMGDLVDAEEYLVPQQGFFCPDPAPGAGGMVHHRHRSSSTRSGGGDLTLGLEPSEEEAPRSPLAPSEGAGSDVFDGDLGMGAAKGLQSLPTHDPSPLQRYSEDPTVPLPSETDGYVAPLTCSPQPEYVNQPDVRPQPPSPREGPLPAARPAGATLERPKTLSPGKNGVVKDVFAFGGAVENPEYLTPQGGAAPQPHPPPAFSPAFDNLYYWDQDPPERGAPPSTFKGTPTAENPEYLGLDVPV

BT-474 = assay: Growth inhibition of human BT474 cells overexpressing HER2 gene after 5 days; format: functional; conditions: BT-474, 120 h
[3] = Metabolic stability in human liver microsomes at 1 umol/L after 20 mins by HPLC analysis; format: ADME, Microsome; conditions: read-out: Stability
CYP3A4 = CYP3A4 (Homo sapiens, UniProt P08684); assay: Inhibition of CYP3A4 at 10 uM after 15 mins; format: ADME
Sequence of CYP3A4 (P08684 whole entry): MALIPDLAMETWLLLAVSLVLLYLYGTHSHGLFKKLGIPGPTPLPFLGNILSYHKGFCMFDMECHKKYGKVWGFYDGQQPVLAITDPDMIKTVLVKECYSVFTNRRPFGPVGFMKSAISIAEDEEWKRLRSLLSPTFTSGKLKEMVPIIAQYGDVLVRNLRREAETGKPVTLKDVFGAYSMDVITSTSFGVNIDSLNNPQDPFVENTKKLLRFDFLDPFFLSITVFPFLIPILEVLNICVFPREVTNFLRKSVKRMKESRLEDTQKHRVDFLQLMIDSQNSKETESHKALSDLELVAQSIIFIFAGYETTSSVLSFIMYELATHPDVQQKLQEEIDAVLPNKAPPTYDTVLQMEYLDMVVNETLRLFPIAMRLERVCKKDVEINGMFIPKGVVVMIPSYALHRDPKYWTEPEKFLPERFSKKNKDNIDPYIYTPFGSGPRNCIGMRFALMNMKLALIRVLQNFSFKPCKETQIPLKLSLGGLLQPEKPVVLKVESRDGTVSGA

[4] = molecular target: Epidermal growth factor receptor (Homo sapiens, UniProt P00533); assay: Inhibition of N-terminus peptide-tagged human recombinant EGFR expressed using baculovirus infection system using [gamma-33P]-ATP preincubated with compound for 5 mins measured after 10 mins by scintillation counting
Sequence of Epidermal growth factor receptor (P00533 whole entry): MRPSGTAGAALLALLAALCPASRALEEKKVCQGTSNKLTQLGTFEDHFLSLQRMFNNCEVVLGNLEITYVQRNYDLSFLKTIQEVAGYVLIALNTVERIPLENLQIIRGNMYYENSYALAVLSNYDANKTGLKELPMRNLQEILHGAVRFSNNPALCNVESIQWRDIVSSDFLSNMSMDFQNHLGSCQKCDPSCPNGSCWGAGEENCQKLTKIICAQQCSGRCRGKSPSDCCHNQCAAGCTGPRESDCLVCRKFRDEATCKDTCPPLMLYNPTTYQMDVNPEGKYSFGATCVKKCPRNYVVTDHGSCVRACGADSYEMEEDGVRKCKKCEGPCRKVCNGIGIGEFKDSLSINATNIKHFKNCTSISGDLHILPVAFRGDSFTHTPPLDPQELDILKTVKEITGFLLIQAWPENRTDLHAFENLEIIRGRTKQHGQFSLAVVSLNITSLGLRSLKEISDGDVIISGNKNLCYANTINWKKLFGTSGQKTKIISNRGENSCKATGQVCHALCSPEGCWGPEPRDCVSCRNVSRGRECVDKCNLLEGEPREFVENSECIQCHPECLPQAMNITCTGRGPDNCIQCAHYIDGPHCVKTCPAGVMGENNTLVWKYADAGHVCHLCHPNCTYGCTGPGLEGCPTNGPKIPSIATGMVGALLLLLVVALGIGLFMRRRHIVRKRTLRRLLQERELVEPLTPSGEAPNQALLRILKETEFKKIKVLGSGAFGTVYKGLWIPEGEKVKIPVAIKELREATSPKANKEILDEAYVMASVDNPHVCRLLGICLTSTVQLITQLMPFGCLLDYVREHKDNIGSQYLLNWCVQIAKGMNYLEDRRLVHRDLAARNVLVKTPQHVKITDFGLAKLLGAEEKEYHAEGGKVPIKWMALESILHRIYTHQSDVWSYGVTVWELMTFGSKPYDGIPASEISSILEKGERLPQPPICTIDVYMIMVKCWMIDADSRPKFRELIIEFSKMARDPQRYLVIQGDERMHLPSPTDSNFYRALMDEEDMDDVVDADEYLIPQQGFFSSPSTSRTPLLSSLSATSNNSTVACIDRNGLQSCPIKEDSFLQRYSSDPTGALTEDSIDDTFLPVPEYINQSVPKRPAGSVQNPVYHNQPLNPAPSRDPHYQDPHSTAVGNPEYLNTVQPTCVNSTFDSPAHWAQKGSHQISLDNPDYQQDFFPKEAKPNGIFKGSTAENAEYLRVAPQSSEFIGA

[5] = molecular target: T1, Receptor tyrosine-protein kinase erbB-2; assay: Pseudo-irreversible inhibition of N-terminus peptide-tagged human recombinant HER2 expressed using baculovirus infection system using [gamma-33P]-ATP preincubated with compound for 5 mins at 10 times IC50 concentration measured after 10 mins by scintillation counting

SMILES | microsomal CLint at 1 µM [1] [µL/min/mg] | IC50 [2] [nM] | GI50 (BT-474) [nM] | microsomal CLint at 1 µM [3] [µL/min/mg] | inhibition at 0.25 h, 10 µM (CYP3A4) [%] | IC50 [4] [nM] | inhibition [5]
CC(C)(O)C(=O)NCCn1ccc2ncnc(Nc3ccc(Oc4cccc5sncc45)c(Cl)c3)c21 | 145 | 2.2 | 9.4 | 117 | 62.6 | 7 | 
O=C1NCc2c(Oc3ccc(Nc4ncnc5ccn(CCO)c45)cc3Cl)cccc21 |  | 150 | 3360 |  |  | 890 | inactive
OCCn1ccc2ncnc(Nc3ccc(Oc4cccc(C(F)(F)F)c4)c(Cl)c3)c21 |  |  |  |  |  | 34 | 
OCCn1ccc2ncnc(Nc3ccc(Oc4cccc5sccc45)c(Cl)c3)c21 | 24 | 6 | 15 | 144 |  | 8.8 | Active
O=C1Cc2c(cccc2Oc2ccc(Nc3ncnc4ccn(CCO)c34)cc2Cl)N1 | 66 | 1.6 | 13 | 141 |  | 3 | Active
O=C1Cc2ccc(Oc3ccc(Nc4ncnc5ccn(CCO)c45)cc3Cl)cc2N1 |  | 130 | 1880 |  |  | 2300 | inactive
O=C1NCc2cc(Oc3ccc(Nc4ncnc5ccn(CCO)c45)cc3Cl)ccc21 |  | 18 | 4080 |  |  | 510 | inactive
O=C1NCc2cccc(Oc3ccc(Nc4ncnc5ccn(CCO)c45)cc3Cl)c21 |  | 2.5 | 768 |  |  | 21 | inactive
O=C1NCc2ccc(Oc3ccc(Nc4ncnc5ccn(CCO)c45)cc3Cl)cc21 |  | 1.3 | 43 |  |  | 7.8 | Active
O=C1Cc2cc(Oc3ccc(Nc4ncnc5ccn(CCO)c45)cc3Cl)ccc2N1 |  | 28 | 1350 |  |  | 960 | inactive
OCCn1ccc2ncnc(Nc3ccc(Oc4cccc5[nH]ccc45)c(Cl)c3)c21 |  | 2.5 | 36 | 204 |  | 3.1 | Active
Cn1ncc2c(Oc3ccc(Nc4ncnc5ccn(CCO)c45)cc3Cl)cccc21 | 106 | 2.1 | 164 | 219 |  | 36 | inactive
CC(C)(CO)C(=O)NCCn1ccc2ncnc(Nc3ccc(Oc4cccc5sncc45)c(Cl)c3)c21 | 88 | 3.3 | 8.6 | 113 |  | 7 | 
CC(C)(C)NC(=O)c1cccc(Oc2ccc(Nc3ncnc4ccn(CCO)c34)cc2Cl)c1 |  | 2.3 | 88 |  |  | 33 | 
OCCn1ccc2ncnc(Nc3ccc(Oc4cccc5sncc45)c(Cl)c3)c21 | 142 | 2.1 | 3.6 | 129 | 47.2 | 4.1 | Active
OCCn1ccc2ncnc(Nc3ccc(Oc4cccc5[nH]ncc45)c(Cl)c3)c21 | 123 | 1.7 | 5.5 | 114 |  | 1.9 | Active
O=C(NCCn1ccc2ncnc(Nc3ccc(Oc4cccc5sncc45)c(Cl)c3)c21)[C@@H]1CCCN1 | 74 | 0.92 | 5.8 | 61 | 35 | 3 | 
CC(=O)NCCn1ccc2ncnc(Nc3ccc(Oc4cccc5sncc45)c(Cl)c3)c21 | 100 | 1.6 | 4 | 133 | 57 | 2.9 | 
CC(C)(C)C(=O)NCCn1ccc2ncnc(Nc3ccc(Oc4cccc5sncc45)c(Cl)c3)c21 | 108 | 6.1 | 9.2 | 94 | 33.5 | 21 | 
CC(C)(C(=O)NCCn1ccc2ncnc(Nc3ccc(Oc4cccc5sncc45)c(Cl)c3)c21)S(C)(=O)=O | 76 | 2 | 8 | 113 | 49.9 | 5.5 | 
O=C1Cc2cccc(Oc3ccc(Nc4ncnc5ccn(CCO)c45)cc3Cl)c2N1 |  | 1.5 | 73 |  |  |  | Active

From ChEMBL document CHEMBL2046372, “Design and synthesis of pyrrolo[3,2-d]pyrimidine human epidermal growth factor receptor 2 (HER2)/epidermal growth factor receptor (EGFR) dual inhibitors: exploration of novel back-pocket binders” (J Med Chem, 2012)
